# Key:
# SERT-S277C = SERT-S277C (Rattus norvegicus, UniProt P31652, C109A/C15A/C21A/C357I/C622A/S277C); assay: Cys277 accessibility; type: biochemical
# [1] = system: wild-type (WT) and VMAT2 heterozygous (HET) mice; assay: Tail suspension in VMAT2 mice; type: in vivo, mouse; conditions: for anti-depressant-like effects 24 h post-injection: VMAT2 HET, 2 mg/kg ‘8090, 0.5 mg/kg ‘8219, 20 mg/kg Flx, 30 mg/kg Ibo; for immobility times: acute (30 min), 20 mg/kg Flx versus vehicle, 30 mg/kg Ibo versus 1 mg/kg ‘8090 and 0.5 mg/kg ‘8219
# [2] = system: learned helpless C57BL/6J mice; assay: Learned helplessness: sucrose preference; type: in vivo, mouse; conditions: for overall sucrose preference at testing: 40 mg/kg Ibo
# [3] = system: learned helpless C57BL/6J mice; assay: Learned helplessness: tail suspension; type: in vivo, mouse; conditions: for immobility upon treatment-withdrawal / anti-depressant-like activities in tail suspension: 40 mg/kg Ibo; for immobility upon treatment-withdrawal: 10 mg/kg Flx; for anti-depressant-like activities in tail suspension: 10 mg/kg Flx daily
# [4] = system: learned helpless C57BL/6J mice; assay: Learned helplessness: shock escape; type: in vivo, mouse; conditions: for shock-escape performance: 40 mg/kg Ibo, 10 mg/kg Flx
# [5] = system: learned helpless C57BL/6J mice; assay: Elevated zero maze; type: in vivo, mouse; conditions: for locomotion in the zero maze versus vehicle: 5 mg/kg ‘8090, 40 mg/kg Ibo
# [6] = system: learned helpless C57BL/6J mice; assay: Elevated 8-arm radial maze; type: in vivo, mouse
# SERT [7] = biological target: T1, SERT (Rattus norvegicus, UniProt P31652); conditions: cited from earlier work
# SERT-Y107C [8] = biological target: T2, SERT-Y107C (Rattus norvegicus, UniProt P31652, C109A/Y107C); conditions: cited from earlier work
# [9] = system: learned helpless C57BL/6J mice; assay: Sensitivity to foot-shock; type: in vivo, mouse; conditions: days 13 and 22
# [10] = system: learned helpless C57BL/6J mice; assay: Open field motor activity; type: in vivo, mouse; conditions: day 12; 2 or 5 mg/kg ‘8090, 5 mg/kg ‘8219; 40 mg/kg Ibo, 10 mg/kg Flx
# SERT [11] = biological target: T1, SERT; assay: [125I]β-CIT displacement binding in membranes from SERT-transfected HeLa cells
# rSERT = rSERT (Rattus norvegicus, UniProt P31652); assay: [3H]5-HT transport into RBL cells or SERT-transfected HeLa cells; type: cell-based
# SERT [12] = biological target: T1, SERT; assay: Efflux of accumulated [3H]5-HT induced by extracellular compounds; type: cell-based; conditions: saturating concentrations
# SERT-Y107C [13] = biological target: T2, SERT-Y107C; assay: Cys107 accessibility; type: cell-based; conditions: saturating concentration (10x KD)
# hSERT = hSERT (Homo sapiens, UniProt P31645); type: cell-based
# 5-HT1A receptor = biological target: T3, 5-HT1A receptor (Homo sapiens, UniProt P08908); assay: GloSensor cAMP Gi agonist activity assay; type: cell-based; conditions: concentration-response
# T3 sequence (P08908 1-422): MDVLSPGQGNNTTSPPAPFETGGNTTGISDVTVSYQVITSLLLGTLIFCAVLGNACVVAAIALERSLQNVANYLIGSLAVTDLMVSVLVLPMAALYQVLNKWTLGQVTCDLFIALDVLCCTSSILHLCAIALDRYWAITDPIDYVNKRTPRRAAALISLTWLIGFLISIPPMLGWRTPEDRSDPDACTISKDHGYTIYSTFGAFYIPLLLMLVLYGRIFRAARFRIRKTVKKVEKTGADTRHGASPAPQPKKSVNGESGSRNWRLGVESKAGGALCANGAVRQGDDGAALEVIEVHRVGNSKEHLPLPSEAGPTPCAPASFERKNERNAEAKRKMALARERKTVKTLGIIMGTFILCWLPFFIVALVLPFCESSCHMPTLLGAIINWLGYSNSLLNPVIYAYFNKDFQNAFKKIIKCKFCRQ
# [14] = Pharmacokinetics, brain exposure after i.p. dosing; type: in vivo; conditions: 10 mg/Kg intraperitoneal (i.p.), mouse
# C56BL/6J mice = assay: Elevated plus-maze assay; type: in vivo, mouse; conditions: ‘8219 and ‘8090 10 mg/kg/day for 10 days; paroxetine 10 mg/kg single
# human DAT = human DAT (Homo sapiens, UniProt Q01959); assay: Neurotransmitter transporter uptake assay, DAT; conditions: read-out: Ki against DAT; cell-based functional assay
# human NET = human NET (Homo sapiens, UniProt P23975); assay: Neurotransmitter transporter uptake assay, NET; conditions: read-out: Ki against NET; cell-based functional assay
# morphine-treated mice = assay: Naloxone-precipitated opioid withdrawal assay; type: in vivo, mouse; conditions: 10 mg/kg i.p.
# [15] = presence of Na+, cocaine 10 µM, ibogaine 10 µM, ‘8219 0.05 µM, ‘8090 0.15 µM
# Sequence of hSERT (P31645 whole entry): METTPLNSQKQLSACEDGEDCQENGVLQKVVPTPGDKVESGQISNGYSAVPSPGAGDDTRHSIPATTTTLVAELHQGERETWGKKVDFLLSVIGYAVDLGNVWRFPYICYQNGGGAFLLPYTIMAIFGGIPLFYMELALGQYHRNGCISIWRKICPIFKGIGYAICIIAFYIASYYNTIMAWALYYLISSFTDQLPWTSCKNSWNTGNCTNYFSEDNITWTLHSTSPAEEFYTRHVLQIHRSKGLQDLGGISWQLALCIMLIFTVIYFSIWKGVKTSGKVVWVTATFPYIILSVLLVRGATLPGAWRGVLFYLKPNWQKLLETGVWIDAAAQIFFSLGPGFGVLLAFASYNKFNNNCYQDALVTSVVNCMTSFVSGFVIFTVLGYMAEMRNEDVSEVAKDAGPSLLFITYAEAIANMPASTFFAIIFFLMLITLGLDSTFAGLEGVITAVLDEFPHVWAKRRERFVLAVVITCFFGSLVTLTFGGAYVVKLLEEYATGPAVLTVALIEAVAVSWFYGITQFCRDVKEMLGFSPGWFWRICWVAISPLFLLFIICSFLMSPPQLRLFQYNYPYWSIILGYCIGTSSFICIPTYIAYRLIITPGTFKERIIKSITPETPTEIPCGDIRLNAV
# Sequence of human NET (P23975 whole entry): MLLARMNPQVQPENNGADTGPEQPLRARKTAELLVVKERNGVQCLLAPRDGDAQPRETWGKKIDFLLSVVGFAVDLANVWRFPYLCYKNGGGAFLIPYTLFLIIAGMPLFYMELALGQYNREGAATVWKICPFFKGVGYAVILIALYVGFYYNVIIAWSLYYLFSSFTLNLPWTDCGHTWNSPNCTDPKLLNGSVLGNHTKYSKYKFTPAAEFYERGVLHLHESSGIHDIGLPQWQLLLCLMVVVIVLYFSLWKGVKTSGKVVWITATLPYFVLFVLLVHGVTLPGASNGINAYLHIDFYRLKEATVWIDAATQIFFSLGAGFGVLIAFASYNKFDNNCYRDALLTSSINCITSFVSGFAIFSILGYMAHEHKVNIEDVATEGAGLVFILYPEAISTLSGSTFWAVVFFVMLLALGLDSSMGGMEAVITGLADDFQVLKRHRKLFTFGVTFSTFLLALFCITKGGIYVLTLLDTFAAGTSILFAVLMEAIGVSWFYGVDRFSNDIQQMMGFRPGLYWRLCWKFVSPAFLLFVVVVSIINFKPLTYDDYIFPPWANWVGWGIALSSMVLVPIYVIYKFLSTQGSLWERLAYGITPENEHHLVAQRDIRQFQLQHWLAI
# Sequence of human DAT (Q01959 whole entry): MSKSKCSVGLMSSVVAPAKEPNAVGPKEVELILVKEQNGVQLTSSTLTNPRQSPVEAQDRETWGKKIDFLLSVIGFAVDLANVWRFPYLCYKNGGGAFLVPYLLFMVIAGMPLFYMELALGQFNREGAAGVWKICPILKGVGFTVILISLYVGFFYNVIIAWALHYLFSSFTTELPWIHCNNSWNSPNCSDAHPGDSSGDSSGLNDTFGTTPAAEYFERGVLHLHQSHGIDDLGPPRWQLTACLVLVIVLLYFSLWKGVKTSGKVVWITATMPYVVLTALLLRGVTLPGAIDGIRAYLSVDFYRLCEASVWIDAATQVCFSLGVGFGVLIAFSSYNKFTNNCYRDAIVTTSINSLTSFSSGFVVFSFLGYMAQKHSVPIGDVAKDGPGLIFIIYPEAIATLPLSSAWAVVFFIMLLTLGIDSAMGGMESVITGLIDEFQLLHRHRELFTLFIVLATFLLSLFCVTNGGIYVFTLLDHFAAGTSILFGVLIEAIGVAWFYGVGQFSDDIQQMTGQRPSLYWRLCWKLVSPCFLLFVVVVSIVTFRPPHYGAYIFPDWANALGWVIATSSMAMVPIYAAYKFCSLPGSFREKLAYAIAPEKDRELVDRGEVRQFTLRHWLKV
molecule,measurement,setting,value
ibogaine,Cys277 reactivity (cytoplasmic pathway) versus control,SERT-S277C; [15],dramatically increased Cys277 reactivity
same,anti-depressant-like effects 24 h post-injection,[1],effects were lost
same,immobility times,[1]; WT,increased
same,overall sucrose preference at testing,[2]; 10 mg/kg Flx daily,increased overall sucrose preference
same,immobility upon treatment-withdrawal,[3],immobility was enhanced
same,anti-depressant-like activities in tail suspension,[3],transient
same,shock-escape performance,[4],improve shock-escape performance
same,locomotion in the zero maze versus vehicle,[5],decreased
same,locomotion in the radial maze,[6]; 40 mg/kg Ibo,suppressed locomotion
same,effect of Cl− on binding to SERT,SERT [7],independent of Cl^−
same,effect of Na+ on binding to SERT,SERT [7],inhibited by Na^+
same,Cys107 accessibility (extracellular pathway),SERT-Y107C [8],decreases its accessibility
"COC(=O)[C@H]1[C@@H](OC(=O)c2ccccc2)C[C@@H]2CC[C@H]1N2C [cocaine, reference compound]",Cys277 reactivity (cytoplasmic pathway) versus control,SERT-S277C; [15],decreased Cys277 reactivity
same,Cys107 accessibility (extracellular pathway),SERT-Y107C [8],renders it more accessible
"CNCCC(Oc1ccc(C(F)(F)F)cc1)c1ccccc1 (stereo not shown) [Flx, fluoxetine]",anti-depressant-like effects 24 h post-injection,[1],maintained
same,immobility times,[1]; WT,increased
same,sucrose preference over vehicle controls on day −2,[2]; 10 mg/kg Flx daily,enhanced preference for sucrose
same,overall sucrose preference at testing,[2]; 10 mg/kg Flx daily,increased overall sucrose preference
same,immobility upon treatment-withdrawal,[3],immobility was enhanced
same,anti-depressant-like activities in tail suspension,[3],transient
same,shock-escape performance,[4],improve shock-escape performance
same,reactivity to foot-shock,[9],do not affect reactivity to foot-shock
same,locomotion in the open field,[10],No locomotor differences were found
same,open area time compared to Ibo and vehicle controls,[5]; 10 mg/kg Flx,increased open area time
same,arm entries before repeating a first entry compared to Ibo and vehicle mice,"[6]; 10 mg/kg Flx, ANCOVA",entered more arms before repeating a first entry
Fc1ccc(-c2csc(N3CCNCC3)n2)cc1 [‘8090],Ki,SERT [11]; displacement of [125I]β-CIT,0.014 µM
same,increase of inhibitory potency (binding) by Na+,SERT [11]; displacement of [125I]β-CIT,15 fold
same,Kd,SERT [11]; read-out: KD values used for kon calculation,0.015 µM
same,Vmax for 5-HT transport in presence of inhibitor,"rSERT; 0.15 μM ‘8219, 0.7 μM ‘8090, HeLa cells transfected with rSERT, control 1.7 ± 0.25",0.69 ± 0.1 pmol/m/well
same,type of inhibition of 5-HT influx,rSERT; decreased Vmax with minimal effect on KM,non-competitive inhibition
same,SERT substrate activity (stimulation of [3H]5-HT efflux),SERT [12],not SERT substrates
same,Cys277 reactivity (cytoplasmic pathway) versus control,"SERT-S277C; absence of Na+ (replaced by NMDG), 2 µM",had no influence on the pathway
same,Cys277 reactivity (cytoplasmic pathway) versus control,SERT-S277C; [15],decreased reactivity slightly
same,Cys107 reactivity (extracellular pathway),SERT-Y107C [13],decreased Cys107 reactivity
same,dissociation rate,"hSERT; HEK-293 cells expressing hSERT pre-incubated with 50 nM ‘8219 or 75 nM ‘8090, washout",1.82 ± 0.09 × 10^−3 s^−1
same,half time for equilibration of binding,"hSERT; at concentrations giving half-maximal inhibition, calculated",less than 7 minutes
same,Gi agonist activity at 5-HT1A relative to reference agonist 5-HT,5-HT1A receptor,about 6%
same,brain Cmax,[14],12000 ng/g
same,half-life,[14]; brain,44.3 min
same,anti-depressant-like effects 24 h post-injection,[1],maintained
same,immobility 24 h post-injection,"[1]; WT, 1 mg/kg compared to 0.5 mg/kg",significantly decreased immobility
same,sucrose preference compared to vehicle,"[2]; daily i.p. dosing, 2 or 5 mg/kg ‘8090, 5 mg/kg ‘8219",significant preference for sucrose compared to vehicle
same,"immobility times on days 0, 1, and 3","[3]; 2 or 5 mg/kg ‘8090, 5 mg/kg ‘8219 daily",reduced
same,shock-escape performance on day 23 versus controls,[4]; 1 mg/kg ‘8090 group,higher
same,shock-escape performance (numbers of escapes) on days 10 and 23,[4]; 5 mg/kg,increased over vehicle
same,reactivity to foot-shock,[9],do not affect reactivity to foot-shock
same,locomotion in the open field,[10],no effects were observed
same,locomotion in the zero maze versus vehicle,[5],increased
same,time in and entry into the open areas versus vehicle,"[5]; 2 or 5 mg/kg ‘8090, 5 mg/kg ‘8219, day 6",spent more time and entered the open areas more readily than vehicle-treated mice
same,open arm entries and time compared to vehicle,C56BL/6J mice,increased the percentage of entries into and the time spent exploring the open arms
same,arm entries before a second repeated entry versus vehicle,"[6]; 2 mg/kg ‘8090 or 5 mg/kg ‘8219, day 9",entered more arms before making a second repeated entry
same,Ki,human DAT,6.6 µM
same,Ki,human NET,10 µM
"Fc1ccc([C@@H]2CCNC[C@H]2COc2ccc3c(c2)OCO3)cc1 [paroxetine, reference compound]",open arm entries and time compared to vehicle,C56BL/6J mice,spent more time exploring the open arms
same,naloxone-precipitated morphine withdrawal symptoms,morphine-treated mice,significantly reduced naloxone-precipitated jumps and rearings
